Data reported in ChEMBL document CHEMBL1201861, “Genomics of Drug Sensitity in Cancer screening data, Wellcome Trust Sanger Institute”.

These molecules were tested on D-502MG (assay: cells). Details: Homo sapiens, D-502MG.
Assay type: functional, cell-based, Homo sapiens
Description: SANGER: Inhibition of human D-502MG cell growth in a cell viability assay.
With `CC[C@H](CO)Nc1nc(NCc2ccccc2)c2ncn(C(C)C)c2n1` [SELICICLIB] the IC50 was greater than 16 µM.

Each molecule was assayed on DEL (assay: cells). Details: Homo sapiens, DEL.
Assay type: functional, cell-based, Homo sapiens
Description: SANGER: Inhibition of human DEL cell growth in a cell viability assay.
`CC[C@H](CO)Nc1nc(NCc2ccccc2)c2ncn(C(C)C)c2n1` [SELICICLIB] was tested, and the IC50 was greater than 16 µM.

Each molecule was assayed on DMS-114 (assay: cells). Details: Homo sapiens, DMS-114.
Assay type: functional, cell-based, Homo sapiens
For `CC[C@H](CO)Nc1nc(NCc2ccccc2)c2ncn(C(C)C)c2n1` [SELICICLIB], the IC50 was greater than 16 µM.

Each molecule was assayed on DOHH-2 (assay: cells). Details: Homo sapiens, DOHH-2.
Assay type: functional, cell-based, Homo sapiens
Description: SANGER: Inhibition of human DOHH-2 cell growth in a cell viability assay.
`CC[C@H](CO)Nc1nc(NCc2ccccc2)c2ncn(C(C)C)c2n1` [SELICICLIB] showed an IC50 greater than 16 µM.

These molecules were tested on EM-2 (assay: cells). Details: Homo sapiens, EM-2.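 Note: growth inhibition of EM-2 cells, read out with a cell viability assay.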
Assay type: functional, cell-based, Homo sapiens
Description: SANGER: Inhibition of human EM-2 cell growth in a cell viability assay.
`CC[C@H](CO)Nc1nc(NCc2ccccc2)c2ncn(C(C)C)c2n1` [SELICICLIB] gave an IC50 greater than 16 µM.

What follows are molecules tested on ES3 (assay: cells). Details: Homo sapiens, ES3.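 Note: growth inhibition of ES3 cells, read out with a cell viability assay.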
Assay type: functional, cell-based, Homo sapiens
Description: SANGER: Inhibition of human ES3 cell growth in a cell viability assay.
`CC[C@H](CO)Nc1nc(NCc2ccccc2)c2ncn(C(C)C)c2n1` [SELICICLIB] gave an IC50 greater than 16 µM.

Each molecule was assayed on ETK-1 (assay: cells). Details: Homo sapiens, ETK-1.
Assay type: functional, cell-based, Homo sapiens
Description: SANGER: Inhibition of human ETK-1 cell growth in a cell viability assay.
For `CC[C@H](CO)Nc1nc(NCc2ccccc2)c2ncn(C(C)C)c2n1` [SELICICLIB], the IC50 was greater than 16 µM.

What follows are molecules tested on EW-11 (assay: cells). Details: Homo sapiens, EW-11.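 Note: growth inhibition of human EW-11 cells, measured with a cell viability assay.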
Assay type: functional, cell-based, Homo sapiens
Description: SANGER: Inhibition of human EW-11 cell growth in a cell viability assay.
In the case of `CC[C@H](CO)Nc1nc(NCc2ccccc2)c2ncn(C(C)C)c2n1` [SELICICLIB], the IC50 is reported as greater than 16 µM.

What follows are molecules tested on EW-13 (assay: cells). Details: Homo sapiens, EW-13.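 Note: growth inhibition of EW-13 cells, read out with a cell viability assay.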
Assay type: functional, cell-based, Homo sapiens
Description: SANGER: Inhibition of human EW-13 cell growth in a cell viability assay.
For `CC[C@H](CO)Nc1nc(NCc2ccccc2)c2ncn(C(C)C)c2n1` [SELICICLIB], the IC50 was greater than 16 µM.

Each molecule was assayed on EW-3 (assay: cells). Details: Homo sapiens, EW-3.
Assay type: functional, cell-based, Homo sapiens
Description: SANGER: Inhibition of human EW-3 cell growth in a cell viability assay.
`CC[C@H](CO)Nc1nc(NCc2ccccc2)c2ncn(C(C)C)c2n1` [SELICICLIB] was tested, and the IC50 was greater than 16 µM.

What follows are molecules tested on HCC 2998 (assay: cells). Details: Homo sapiens, HCC 2998.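 Note: growth inhibition of human HCC2998 cells, measured with a cell viability read-out.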
Assay type: functional, cell-based, Homo sapiens
Description: SANGER: Inhibition of human HCC2998 cell growth in a cell viability assay.
Work on `CC[C@H](CO)Nc1nc(NCc2ccccc2)c2ncn(C(C)C)c2n1` [SELICICLIB] yielded an IC50 greater than 16 µM.

These molecules were tested on HCE-T (assay: cells). Details: Homo sapiens, HCE-T.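 Note: cell viability assay read-out, reporting inhibition of HCE-T cell growth.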
Assay type: functional, cell-based, Homo sapiens
Description: SANGER: Inhibition of human HCE-T cell growth in a cell viability assay.
`CC[C@H](CO)Nc1nc(NCc2ccccc2)c2ncn(C(C)C)c2n1` [SELICICLIB] showed an IC50 greater than 16 µM.

Each molecule was assayed on HH (assay: cells). Details: Homo sapiens, HH.
Assay type: functional, cell-based, Homo sapiens
Description: SANGER: Inhibition of human HH cell growth in a cell viability assay.
`CC[C@H](CO)Nc1nc(NCc2ccccc2)c2ncn(C(C)C)c2n1` [SELICICLIB] showed an IC50 greater than 16 µM.

Each molecule was assayed on IST-SL1 (assay: cells). Details: Homo sapiens, IST-SL1.
Assay type: functional, cell-based, Homo sapiens
Description: SANGER: Inhibition of human IST-SL1 cell growth in a cell viability assay.
With `CC[C@H](CO)Nc1nc(NCc2ccccc2)c2ncn(C(C)C)c2n1` [SELICICLIB] the IC50 was greater than 16 µM.

What follows are molecules tested on JVM-2 (assay: cells). Details: Homo sapiens, JVM-2.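 Note: growth inhibition of JVM-2 cells determined by a cell viability assay.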
Assay type: functional, cell-based, Homo sapiens
Description: SANGER: Inhibition of human JVM-2 cell growth in a cell viability assay.
`CC[C@H](CO)Nc1nc(NCc2ccccc2)c2ncn(C(C)C)c2n1` [SELICICLIB] showed an IC50 greater than 16 µM.

Each molecule was assayed on JVM-3 (assay: cells). Details: Homo sapiens, JVM-3.
Assay type: functional, cell-based, Homo sapiens
Description: SANGER: Inhibition of human JVM-3 cell growth in a cell viability assay.
Work on `CC[C@H](CO)Nc1nc(NCc2ccccc2)c2ncn(C(C)C)c2n1` [SELICICLIB] yielded an IC50 greater than 16 µM.

What follows are molecules tested on K5 (assay: cells). Details: Homo sapiens, K5.
Assay type: functional, cell-based, Homo sapiens
Description: SANGER: Inhibition of human K5 cell growth in a cell viability assay.
`CC[C@H](CO)Nc1nc(NCc2ccccc2)c2ncn(C(C)C)c2n1` [SELICICLIB] showed an IC50 greater than 16 µM.

Each molecule was assayed on KALS-1 (assay: cells). Details: Homo sapiens, KALS-1.
Assay type: functional, cell-based, Homo sapiens
Description: SANGER: Inhibition of human KALS-1 cell growth in a cell viability assay.
`CC[C@H](CO)Nc1nc(NCc2ccccc2)c2ncn(C(C)C)c2n1` [SELICICLIB] was tested, and the IC50 was greater than 16 µM.

These molecules were tested on KARPAS-45 (assay: cells). Details: Homo sapiens, KARPAS-45.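 Note: inhibition of cell line growth, read out through a viability assay.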
Assay type: functional, cell-based, Homo sapiens
Description: SANGER: Inhibition of human KARPAS-45 cell growth in a cell viability assay.
`CC[C@H](CO)Nc1nc(NCc2ccccc2)c2ncn(C(C)C)c2n1` [SELICICLIB] showed an IC50 greater than 16 µM.

What follows are molecules tested on KGN (assay: cells). Details: Homo sapiens, KGN.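 Note: growth inhibition of KGN cells, read out with a cell viability assay.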
Assay type: functional, cell-based, Homo sapiens
Description: SANGER: Inhibition of human KGN cell growth in a cell viability assay.
Work on `CC[C@H](CO)Nc1nc(NCc2ccccc2)c2ncn(C(C)C)c2n1` [SELICICLIB] yielded an IC50 greater than 16 µM.

These molecules were tested on KNS-42 (assay: cells). Details: Homo sapiens, KNS-42.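 Note: growth inhibition of KNS-42 cells, read out with a cell viability assay.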
Assay type: functional, cell-based, Homo sapiens
Description: SANGER: Inhibition of human KNS-42 cell growth in a cell viability assay.
`CC[C@H](CO)Nc1nc(NCc2ccccc2)c2ncn(C(C)C)c2n1` [SELICICLIB] was tested, and the IC50 was greater than 16 µM.

These molecules were tested on LAMA-84 (assay: cells). Details: Homo sapiens, LAMA-84.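 Note: growth inhibition of LAMA-84 cells, read out with a cell viability assay.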
Assay type: functional, cell-based, Homo sapiens
Description: SANGER: Inhibition of human LAMA-84 cell growth in a cell viability assay.
`CC[C@H](CO)Nc1nc(NCc2ccccc2)c2ncn(C(C)C)c2n1` [SELICICLIB] showed an IC50 greater than 16 µM.

What follows are molecules tested on LB2518-MEL (assay: cells). Details: Homo sapiens, LB2518-MEL.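 Note: growth inhibition of human LB2518-MEL cells, measured with a cell viability assay.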
Assay type: functional, cell-based, Homo sapiens
Description: SANGER: Inhibition of human LB2518-MEL cell growth in a cell viability assay.
`CC[C@H](CO)Nc1nc(NCc2ccccc2)c2ncn(C(C)C)c2n1` [SELICICLIB] gave an IC50 greater than 16 µM.

What follows are molecules tested on LB771-HNC (assay: cells). Details: Homo sapiens, LB771-HNC.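 Note: growth inhibition of LB771-HNC human cells, read out with a cell viability assay.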
Assay type: functional, cell-based, Homo sapiens
Description: SANGER: Inhibition of human LB771-HNC cell growth in a cell viability assay.
For `CC[C@H](CO)Nc1nc(NCc2ccccc2)c2ncn(C(C)C)c2n1` [SELICICLIB], the IC50 was greater than 16 µM.

What follows are molecules tested on LB831-BLC (assay: cells). Details: Homo sapiens, LB831-BLC.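 Note: growth inhibition of LB831-BLC cells, read out with a cell viability assay.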
Assay type: functional, cell-based, Homo sapiens
Description: SANGER: Inhibition of human LB831-BLC cell growth in a cell viability assay.
`CC[C@H](CO)Nc1nc(NCc2ccccc2)c2ncn(C(C)C)c2n1` [SELICICLIB] was tested, and the IC50 was 11.6 µM.

These molecules were tested on LS-411N (assay: cells). Details: Homo sapiens, LS-411N.
Assay type: functional, cell-based, Homo sapiens
For `CC[C@H](CO)Nc1nc(NCc2ccccc2)c2ncn(C(C)C)c2n1` [SELICICLIB], the IC50 was greater than 16 µM.

These molecules were tested on LS-513 (assay: cells). Details: Homo sapiens, LS-513.
Assay type: functional, cell-based, Homo sapiens
Description: SANGER: Inhibition of human LS-513 cell growth in a cell viability assay.
With `CC[C@H](CO)Nc1nc(NCc2ccccc2)c2ncn(C(C)C)c2n1` [SELICICLIB] the IC50 was greater than 16 µM.

The molecules below were run on MFM-223 (assay: cells). Details: Homo sapiens, MFM-223.
Assay type: functional, cell-based, Homo sapiens
Description: SANGER: Inhibition of human MFM-223 cell growth in a cell viability assay.
In the case of `CC[C@H](CO)Nc1nc(NCc2ccccc2)c2ncn(C(C)C)c2n1` [SELICICLIB], the IC50 is reported as greater than 16 µM.

Each molecule was assayed on MN-60 (assay: cells). Details: Homo sapiens, MN-60.
Assay type: functional, cell-based, Homo sapiens
Description: SANGER: Inhibition of human MN-60 cell growth in a cell viability assay.
For `CC[C@H](CO)Nc1nc(NCc2ccccc2)c2ncn(C(C)C)c2n1` [SELICICLIB], the IC50 was greater than 16 µM.

What follows are molecules tested on MS-1 (assay: cells). Details: Homo sapiens, MS-1.
Assay type: functional, cell-based, Homo sapiens
Description: SANGER: Inhibition of human MS-1 cell growth in a cell viability assay.
For `CC[C@H](CO)Nc1nc(NCc2ccccc2)c2ncn(C(C)C)c2n1` [SELICICLIB], the IC50 was greater than 16 µM.

What follows are molecules tested on MV4-11 (assay: cells). Details: Homo sapiens, MV4-11.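 Note: cell viability readout measuring growth inhibition of human MV-4-11 cells.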
Assay type: functional, cell-based, Homo sapiens, MV-4-11
Description: SANGER: Inhibition of human MV-4-11 cell growth in a cell viability assay.
`CC[C@H](CO)Nc1nc(NCc2ccccc2)c2ncn(C(C)C)c2n1` [SELICICLIB] was tested, and the IC50 was greater than 16 µM.

These molecules were tested on NB17 (assay: cells). Details: Homo sapiens, NB17.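 Note: growth inhibition of NB17 cells, read out with a cell viability assay.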
Assay type: functional, cell-based, Homo sapiens
Description: SANGER: Inhibition of human NB17 cell growth in a cell viability assay.
`CC[C@H](CO)Nc1nc(NCc2ccccc2)c2ncn(C(C)C)c2n1` [SELICICLIB] showed an IC50 greater than 16 µM.

Each molecule was assayed on NCI-H1355 (assay: cells). Details: Homo sapiens, NCI-H1355.
Assay type: functional, cell-based, Homo sapiens
Description: SANGER: Inhibition of human NCI-H1355 cell growth in a cell viability assay.
`CC[C@H](CO)Nc1nc(NCc2ccccc2)c2ncn(C(C)C)c2n1` [SELICICLIB] was tested, and the IC50 was greater than 16 µM.

These molecules were tested on NCI-H526 (assay: cells). Details: Homo sapiens, NCI-H526.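 Note: growth inhibition of the human NCI-H526 cell line, measured by a cell viability assay.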
Assay type: functional, cell-based, Homo sapiens
Description: SANGER: Inhibition of human NCI-H526 cell growth in a cell viability assay.
Molecule `CC[C@H](CO)Nc1nc(NCc2ccccc2)c2ncn(C(C)C)c2n1` [SELICICLIB] has an IC50 greater than 16 µM.

These molecules were tested on NMC-G1 (assay: cells). Details: Homo sapiens, NMC-G1.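 Note: growth inhibition of the NMC-G1 cell line, measured with a cell viability read-out.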
Assay type: functional, cell-based, Homo sapiens
Description: SANGER: Inhibition of human NMC-G1 cell growth in a cell viability assay.
For `CC[C@H](CO)Nc1nc(NCc2ccccc2)c2ncn(C(C)C)c2n1` [SELICICLIB], the IC50 was greater than 16 µM.

What follows are molecules tested on OMC-1 (assay: cells). Details: Homo sapiens, OMC-1.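 Note: growth inhibition of the OMC-1 cell line, measured by a cell viability assay.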
Assay type: functional, cell-based, Homo sapiens
Description: SANGER: Inhibition of human OMC-1 cell growth in a cell viability assay.
`CC[C@H](CO)Nc1nc(NCc2ccccc2)c2ncn(C(C)C)c2n1` [SELICICLIB] showed an IC50 greater than 16 µM.

The molecules below were run on P30-OHK (assay: cells). Details: Homo sapiens, P30-OHK.
Assay type: functional, cell-based, Homo sapiens
Description: SANGER: Inhibition of human P30-OHK cell growth in a cell viability assay.
`CC[C@H](CO)Nc1nc(NCc2ccccc2)c2ncn(C(C)C)c2n1` [SELICICLIB] was tested, and the IC50 was greater than 16 µM.

The molecules below were run on RH-1 (assay: cells). Details: Homo sapiens, RH-1.
Assay type: functional, cell-based, Homo sapiens
Description: SANGER: Inhibition of human RH-1 cell growth in a cell viability assay.
With `CC[C@H](CO)Nc1nc(NCc2ccccc2)c2ncn(C(C)C)c2n1` [SELICICLIB] the IC50 was greater than 16 µM.

What follows are molecules tested on RPMI-8226 (assay: cells). Details: Homo sapiens, RPMI-8226.
Assay type: functional, cell-based, Homo sapiens
Description: SANGER: Inhibition of human RPMI-8226 cell growth in a cell viability assay.
For `CC[C@H](CO)Nc1nc(NCc2ccccc2)c2ncn(C(C)C)c2n1` [SELICICLIB], the IC50 was greater than 16 µM.

The molecules below were run on SH-4 (assay: cells). Details: Homo sapiens, SH-4.
Assay type: functional, cell-based, Homo sapiens
Description: SANGER: Inhibition of human SH-4 cell growth in a cell viability assay.
`CC[C@H](CO)Nc1nc(NCc2ccccc2)c2ncn(C(C)C)c2n1` [SELICICLIB] showed an IC50 greater than 16 µM.

Each molecule was assayed on SK-N-DZ (assay: cells). Details: Homo sapiens, SK-N-DZ.
Assay type: functional, cell-based, Homo sapiens
Description: SANGER: Inhibition of human SK-N-DZ cell growth in a cell viability assay.
`CC[C@H](CO)Nc1nc(NCc2ccccc2)c2ncn(C(C)C)c2n1` [SELICICLIB] was tested, and the IC50 was greater than 16 µM.

These molecules were tested on SK-NEP-1 (assay: cells). Details: Homo sapiens, SK-NEP-1.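 Note: growth inhibition of human SK-NEP-1 cells, read out by a cell viability assay.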
Assay type: functional, cell-based, Homo sapiens
Description: SANGER: Inhibition of human SK-NEP-1 cell growth in a cell viability assay.
Work on `CC[C@H](CO)Nc1nc(NCc2ccccc2)c2ncn(C(C)C)c2n1` [SELICICLIB] yielded an IC50 greater than 16 µM.

Each molecule was assayed on ALL-PO (assay: cells). Details: Homo sapiens, ALL-PO.
Assay type: functional, cell-based, Homo sapiens
Description: SANGER: Inhibition of human ALL-PO cell growth in a cell viability assay.
With `CC[C@H](CO)Nc1nc(NCc2ccccc2)c2ncn(C(C)C)c2n1` [SELICICLIB] the IC50 was greater than 16 µM.

These molecules were tested on ATN-1 (assay: cells). Details: Homo sapiens, ATN-1.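 Note: growth inhibition of human ATN-1 cells, read out with a cell viability assay.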
Assay type: functional, cell-based, Homo sapiens
Description: SANGER: Inhibition of human ATN-1 cell growth in a cell viability assay.
With `CC[C@H](CO)Nc1nc(NCc2ccccc2)c2ncn(C(C)C)c2n1` [SELICICLIB] the IC50 was greater than 16 µM.

Each molecule was assayed on BV-173 (assay: cells). Details: Homo sapiens, BV-173.
Assay type: functional, cell-based, Homo sapiens
Description: SANGER: Inhibition of human BV-173 cell growth in a cell viability assay.
With `CC[C@H](CO)Nc1nc(NCc2ccccc2)c2ncn(C(C)C)c2n1` [SELICICLIB] the IC50 was greater than 16 µM.

Each molecule was assayed on C2BBe1 (assay: cells). Details: Homo sapiens, C2BBe1.
Assay type: functional, cell-based, Homo sapiens
Description: SANGER: Inhibition of human C2BBe1 cell growth in a cell viability assay.
`CC[C@H](CO)Nc1nc(NCc2ccccc2)c2ncn(C(C)C)c2n1` [SELICICLIB] was tested, and the IC50 was greater than 16 µM.

Each molecule was assayed on CAS-1 (assay: cells). Details: Homo sapiens, CAS-1.
Assay type: functional, cell-based, Homo sapiens
Description: SANGER: Inhibition of human CAS-1 cell growth in a cell viability assay.
`CC[C@H](CO)Nc1nc(NCc2ccccc2)c2ncn(C(C)C)c2n1` [SELICICLIB] was tested, and the IC50 was greater than 16 µM.
